Source: ChEMBL document CHEMBL1134333, “[3H]N-2-(4-(N-benzamido)phenyl)propyl-2-propanesulfonamide: a novel AMPA receptor potentiator and radioligand” (J Med Chem, 2001)
pEC50, pIC50: −log10 of the molar value.

What was measured:
[1] = biological target: T1, Glutamate receptor ionotropic, AMPA (Rattus norvegicus, UniProt P19490+P19491+P19492+P19493); test: Effective concentration of AMPA required to increase specific binding of [3H]6 to rat cerebral cortical membranes.
[2] = biological target: T1, Glutamate receptor ionotropic, AMPA; test: Inhibition of binding to AMPA receptor from rat cerebral cortex; type: tissue-based
[3] = biological target: T1, Glutamate receptor ionotropic, AMPA; test: Effective concentration of glutamate required to increase specific binding of [3H]6 to rat cerebral cortical membranes.

Structure (SMILES)	pEC50 [1]	pIC50 [2]	pEC50 [3]
CC(CNS(=O)(=O)C(C)C)c1ccc(NC(=O)c2ccccc2)cc1 (centres undefined)	5.26	6.77	4.51
NS(=O)(=O)c1cc2c(cc1Cl)NC(C1CC3C=CC1C3)NS2(=O)=O (centres undefined) [CYCLOTHIAZIDE]	–	5.21	–
